Source: patent US5075287A, “Muramyl peptide derivatives and immunoregulating compositions containing them” (priority 1989, dated 1991)
Read-outs that look alike come from different tables or passages of the source.

Tests used:
[1] = system: hepatitis B virus surface antigen (HBs); assay: Hepatitis-vaccine enhancing activity (adjuvant activity): anti-HBs IgG in mouse serum by ELISA; format: in vivo, female CDF1 mice; settings: Experiment 1, 5000-fold dilution
Description: A compound of the present invention was dissolved in lipidmicrosphere (1 mg/ml). On the other hand, a solution of hepatitis B virus surface antigen (HBs) in physiological saline was prepared (50 μg/ml). The above solutions in equal amounts were mixed to prepare a test solution. A control solution was prepared by the exclusion of the compound of the present invention from said test solution. A mixture of a suspension of aluminium hydroxide gel in physiological saline (1 mg/ml) and said hepatitis vaccine preparation in equal amounts was prepared as another control solution. The test solution (0.2 ml) was intraperitoneally administered to each mouse in one group consisting of seven female CDF1 mice.
Blood samples were collected from the fundus ocluli vein of each mouse every week after the administration and then centrifuged to obtain serums. Three weeks after the administration, 0.2 ml of the test liquid was intraperitoneally administered again to each mouse for secondary stimulation. Then blood collecting was conducted every week to obtain serums after the application of the secondary stimulation, in the same manner as that described above.
The amount of the IgG antibodies against the hepatitis B virus surface antigens (HBs) in the serums thus obtained was determined with an ELISA method.

[2] = system: influenza HA vaccine (B/Nagasaki/1/87 strain); format: in vivo, female CDF1 mice; settings: Experiment 1, 5000-fold dilution
[3] = system: L-1210 mouse leukemia cells; assay: Activation of macrophages (growth inhibition of tumor cells by intraperitoneal macrophages of treated mice, MTT assay); format: cell-based; settings: macrophages taken 3 days after i.p. 0.2 ml of 500 μg/ml, macrophage:L-1210 20:1, 72 hours
Description: A compound of the present invention was dissolved in lipidmicrosphere to obtain a solution in a concentration of 500μg/ml, and 0.2 ml of such solution was intraperitoneally administered to each mouse in one group consisting of seven female CDF1 mice. Intraperitoneal macrophages obtained three days after the administration and L-1210 mouse leukemia cells were mixed in the ratio of cell numbers of 20:1, respectively. Two hundred μl of the mixture was placed in each well of one sheet of 96 well microtiter plate. After 72 hours, the increase of the cell number in each well was determined by a MTT assay method. The ratio of the cell number for the mixture of the L-1210 cells and the macrophage relative to the cell number for the L-1210 cells only(growth inhibitory ratio) was determined, and the results are shown in Table 3.

[4] = 1 W after i.p. administration, compound in lipidmicrosphere + HBs
[5] = 4 W (after secondary stimulation at 3 weeks)
[6] = 5 W (after secondary stimulation at 3 weeks)
[7] = 1 W after i.p. administration, compound in lipidmicrosphere + HA vaccine

SMILES	Anti-HBs IgG antibody level in serum (ELISA absorbance at 415 nm) [1, 4] [O.D 415 nm]	Anti-HBs IgG antibody level in serum (ELISA absorbance at 415 nm) ([1]; 2 W) [O.D 415 nm]	Anti-HBs IgG antibody level in serum (ELISA absorbance at 415 nm) ([1]; 3 W) [O.D 415 nm]	Anti-HBs IgG antibody level in serum (ELISA absorbance at 415 nm) [1, 5] [O.D 415 nm]	Anti-HBs IgG antibody level in serum (ELISA absorbance at 415 nm) [1, 6] [O.D 415 nm]	Anti HA serum antigen value (average value ± S.D.) [2, 7] [O.D 415 nm]	Anti HA serum antigen value (average value ± S.D.) ([2]; 2 W) [O.D 415 nm]	Anti HA serum antigen value (average value ± S.D.) ([2]; 3 W) [O.D 415 nm]	Anti HA serum antigen value (average value ± S.D.) [2, 5] [O.D 415 nm]	Anti HA serum antigen value (average value ± S.D.) [2, 6] [O.D 415 nm]	Growth inhibitory ratio of L-1210 mouse leukemia cells [3] [%]
CCCCCCCCCCCCCC(=O)OC[C@H]1O[C@@H](SC(=O)C[C@@H](CCCCCCCCCCC)OC(=O)CCCCCCCCCCCCC)[C@H](NC(C)=O)[C@@H](O[C@H](C)C(=O)N[C@@H](C)C(=O)N[C@H](CCC(=O)OC)C(N)=O)[C@@H]1O [Example 15]	0	0.085 ± 0.002	0.129 ± 0.001	0.788 ± 0.008	0.905 ± 0.020	0.007 ± 0.000	0.119 ± 0.005	0.218 ± 0.006	1.249 ± 0.013	1.262 ± 0.017	87.5
CCCCCCCCCCCCCCCCCC(=O)OC[C@H]1O[C@H](OC(=O)C(CCCCCCCCCCCCCC)CCCCCCCCCCCCCC)[C@H](NC(C)=O)[C@@H](O[C@H](C)C(=O)N[C@@H](C)C(=O)N[C@H](CCC(=O)OC)C(N)=O)[C@@H]1O [Example 7, N-[2-0-{2-Acetamido-2,3-dideoxy-6-0-octadecanoyl-1-0-(2-tetradecylhexadecanoyl)-α-D-glucopyranos-3-yl}-D-lactoyl]-L-alanyl-D-isoglutamine methylester]	0	0.016 ± 0.003	0.071 ± 0.004	0.426 ± 0.000	0.470 ± 0.010	0.001 ± 0.001	0.112 ± 0.003	0.286 ± 0.001	1.039 ± 0.010	1.128 ± 0.026	90.2
CCCCCCCCCCCCCCCCCC(=O)OC[C@H]1O[C@@H](SC(=O)C[C@@H](CCCCCCCCCCC)OC(=O)CCCCCCCCCCCCC)[C@H](NC(C)=O)[C@@H](O[C@H](C)C(=O)N[C@@H](C)C(=O)N[C@H](CCC(=O)OC)C(N)=O)[C@@H]1O [Example 16, N-[2-0-{2-Acetamido-2,3-dideoxy-6-0-octadecanoyl-1-S-((3R)-3-tetradecanoyloxytetradecanoyl)-1-thio-β-D-glucopyranos-3-yl}-D-lactoyl]-L-alanyl-D-isoglutamine methylester]	0	0.079 ± 0.004	0.103 ± 0.004	0.850 ± 0.008	0.903 ± 0.021	0.001 ± 0.001	0.145 ± 0.004	0.257 ± 0.010	1.251 ± 0.010	1.262 ± 0.026	76.3
CCCCCCCCCCCCCC(=O)OC[C@H]1O[C@H](OC(=O)C[C@@H](CCCCCCCCCCC)OC(=O)CCCCCCCCCCCCC)[C@H](NC(C)=O)[C@@H](O[C@H](C)C(=O)N[C@@H](C)C(=O)N[C@H](CCC(=O)OC)C(N)=O)[C@@H]1O [Example 12, N-[2-0-{2-Acetamido-2,3-dideoxy-6-0-tetradecanoyl-1-0-((3R)-3-tetradecanoyloxytetradecanoyl)-α-D-glucopyranos-3yl}-D-lactoyl]-L-alanyl-D-isoglutamine methylester]	0.007 ± 0.003	0.109 ± 0.002	0.111 ± 0.001	0.608 ± 0.021	0.695 ± 0.021	0	0.105 ± 0.004	0.176 ± 0.002	1.039 ± 0.015	1.050 ± 0.008	79.0
CCCCCCCCCCCCCCCCCC(=O)OC[C@H]1O[C@H](OC(=O)C[C@@H](CCCCCCCCCCC)OC(=O)CCCCCCCCCCCCC)[C@H](NC(C)=O)[C@@H](O[C@H](C)C(=O)N[C@@H](C)C(=O)N[C@H](CCC(=O)OC)C(N)=O)[C@@H]1O [Example 13, N-[2-0-{2-Acetamido-2,3-dideoxy-6-0-octadecanoyl-1-0-((3R)-3-tetradecanoyloxytetradecanoyl)-α-D-glucopyranos-3-yl}-D-lactoyl]-L-alanyl-D-isoglutamine methylester]	0	0.081 ± 0.003	0.126 ± 0.003	0.635 ± 0.011	0.742 ± 0.016	0	0.088 ± 0.004	0.140 ± 0.001	0.868 ± 0.010	0.824 ± 0.002	39.7
CCCCCCCCCCCCCCC(CCCCCCCCCCCCCC)C(=O)O[C@H]1O[C@H](COC(=O)CCCCCCCCCCCCC)[C@@H](O)[C@H](O[C@H](C)C(=O)N[C@@H](C)C(=O)N[C@H](CCC(=O)OC)C(N)=O)[C@H]1NC(C)=O [Example 6, N-[2-0-{2-Acetamido-2,3-dideoxy-6-0-tetradecanoyl-1-0-(2-tetradecylhexadecanoyl)-α-D-glucopyranos-3-yl}-D-lactoyl]-L-alanyl-D-isoglutamine methylester]	0	0.020 ± 0.002	0.069 ± 0.001	0.477 ± 0.005	0.529 ± 0.005	0.001 ± 0.001	0.013 ± 0.002	0.259 ± 0.004	1.025 ± 0.013	1.159 ± 0.013	63.0
